Laboratory results from US20070060636A1, “High enantiomeric purity dexanabinol for pharmaceutical compositions” (priority 2002, published 2007).
Where two headings read alike, the source gives them in different places.

What was measured:
[1] = 14-day multiple dose pharmacokinetic/toxicity study, rabbit; type: in vivo, rabbits; conditions: for AUC(0-inf) / Cmax: plasma, 25 mg/kg i.v. daily, final dose Day 14 (NOAEL); for AUC∞ Ratio to Phase I / Cmax Ratio to Phase I / AUC∞ Ratio to Phase II / Cmax Ratio to Phase II: 25 mg/kg Day 14; for AUC∞ Ratio to Phase I / Cmax Ratio to Phase I: vs human 150 mg Phase I; for AUC∞ Ratio to Phase II / Cmax Ratio to Phase II: vs human 150 mg Phase II
Method: The pharmacokinetics of dexanabinol of high enantiomeric purity formulated in CREMOPHOR EL®:ethanol as described in Example 4 were investigated in rats, rabbits, and monkeys following intravenous administration of single doses, and 14 and 28 days of repeated dosing. Human pharmacokinetics was studied during Phase I and Phase II clinical studies. Dexanabinol used in the pharmacokinetic studies was formulated as drug concentrates of 50 and 100 mg/ml and diluted with sterile 0.9% NaCl solution prior to intravenous (i.v.) administration to the desired final doses. Determination of dexanabinol concentrations in plasma and brain extracts was carried out using a validated Gas Chromatography-Mass Spectra (GC-MS) assay following solid phase extraction of the drug and derivatization. The limit of quantitation of the assay is 0.1 ng/ml.
(§1) Pharmacokinetic parameters were estimated by a non-compartmental method using WinNonlin Professional version 3.2 (Pharsight Corp., Mountain View, Calif.). The maximum plasma concentration (Cmax), when the drug is administered by infusion, is the concentration at the end of infusion. The Cmax following intravenous bolus administration is the value estimated by the software to be the concentration at t=0. The terminal slope (X) was estimated by linear regression through the last time points and used to calculate the terminal half-life (t1/2) from the following equation: t1/2=0.693/λ The area under the curve from time of dosing through the last time point (AUCz) was calculated by the linear trapezoid method. The AUC extrapolated to infinity (AUC∞) was calculated from the following equation: AUC∞=AUCz+Cz/λ where Cz is the concentration at the last time point predicted by the linear regression. AUC∞ was normalized for dose (mg/kg) and presented as AUC∞/Dose. Mean residence time (MRT), when the drug is administered by infusion is described by the following equation: MRT=(AUMC/AUC)−(TI)/2 Mean residence time after i.v. bolus administration is described by the following equation: MRT=(AUMC/AUC) where AUMC is the area under the first moment curve and TI is the length of infusion. Plasma clearance (CL), and the apparent volume of distribution at steady state (Vss) were calculated from the following equations: CL=Dose/AUC∞ Vss=MRT×CL
In 14-day multiple dose pharmacokinetic studies, the NOAEL was 15 mg/kg/day in rats and 25 mg/kg/day in rabbits. In a 28-day study in monkeys the NOAEL was 25 mg/kg/day. Cmax and AUC observed following the last dose at the NOAEL in the multiple dose toxicity studies and the ratios of these values to those observed in the Phase I and II studies for the 150 mg dose are shown in Table 7.

[2] = 1st Phase I study, rising single i.v. dose, healthy male volunteers; type: in vivo, human; conditions: for AUC∞/Dose: normalized for dose (mg/kg); for half-life / MRT / clearance / AUC / AUC(0-inf) / Cmax / Vd: male, human, plasma, iv; for AUC / AUC(0-inf) / Cmax: up to 24 hr; for Vd: read-out: Vss
Method: as §1
A Phase I, open label, single center study was conducted to evaluate the safety and tolerance of dexanabinol of high enantiomeric purity following a single intravenous administration to normal, healthy male volunteers (Brewster M. E. et al., International Journal Of Clinical Pharmacology and Therapeutics 35: 361-5, 1997). The trial was designed as a rising-dose tolerance study in healthy young male volunteers. In the study, seven groups of at least six subjects each (in the 100 mg dose n=9) received increasing doses (4, 8, 16, 32, 48, 100, 200 mg/volunteer) of dexanabinol. An additional group of 6 subjects received the vehicle alone. The lower doses, from 4 to 32 mg/volunteer, were included only in the safety segment of the study. Volunteers were followed-up up to 6 days after drug dosing for safety evaluation.
The pharmacokinetic segment of this study involved 27 healthy male subjects to assess the pharmacokinetic profile of 48, 100 and 200 mg i.v. doses of dexanabinol. Each dosing group, including vehicle control, consisted of 6 healthy male subjects, except for the 100 mg dosing group which contained nine subjects. On the pre-study day, volunteers were treated with 20 mg dexamethasone orally. On the study day, each group was premedicated with Chlorpheniramine maleate 10 mg (H1 blocker) and Cimetidine 300 mg (H2 blocker) intravenously, followed 30 minutes later by a single intravenous infusion of dexanabinol, administered using an Ivac peristaltic pump at a rate of 6 ml/min (approximately 15 min infusion/dose). Ten milliliters of blood were then removed (from the contralateral arm) at the end of the infusion, at 5, 10, 20, 30, 45 min, and at 1, 2, 3, 6, 12 and 24 hr post infusion. In some cases blood was also drawn 48 hr post end of infusion.
Mean pharmacokinetic parameters were estimated by non-compartmental methods up to 24 hr post-infusion for each dose group (mean±SE; n=6 or 9) using WinNonlin Professional version 3.2, (Pharsight Corp., Mountain view Calif.) and are presented in Table 8.

[3] = in vivo; cited from earlier work
[4] = both sexes, iv, rabbit male & female
[5] = 48 mg single i.v. infusion, healthy volunteers, mean ± SE
[6] = 100 mg single i.v. infusion, healthy volunteers, mean ± SE
[7] = 200 mg single i.v. infusion, healthy volunteers, mean ± SE

Work on `CCCCCCC(C)(C)c1cc(O)c2c(c1)OC(C)(C)[C@H]1CC=C(CO)C[C@H]21` [dexanabinol, 1,1-dimethylheptyl-(3S,4S)-7-hydroxy-Δ^6-tetrahydrocannabinol] yielded an AUC(0-inf) [1, 4] of 67700 ng·h/mL, a Cmax [1, 4] of 132000 ng/mL and an AUC(0-inf) ([1]; iv, rabbit female) of 67900 ng·h/mL. The Cmax ([1]; iv, rabbit female) was 115000 ng/mL, the AUC(0-inf) ([1]; iv, rabbit male) was 67700 ng·h/mL and the Cmax ([1]; iv, rabbit male) was 150000 ng/mL. The “AUC∞ Ratio to Phase I” value ([1]; rabbit female) was 21.2, the “Cmax Ratio to Phase I” value ([1]; rabbit female) was 23.0 and the “AUC∞ Ratio to Phase II” value ([1]; rabbit female) was 45.8. For the same molecule, the “Cmax Ratio to Phase II” value ([1]; rabbit female) was 58.6, the “AUC∞ Ratio to Phase I” value ([1]; rabbit male & female) was 21.1 and the “Cmax Ratio to Phase I” value ([1]; rabbit male & female) was 26.4. The “AUC∞ Ratio to Phase II” value ([1]; rabbit male & female) was 45.6, the “Cmax Ratio to Phase II” value ([1]; rabbit male & female) was 67.2 and the “AUC∞ Ratio to Phase I” value ([1]; rabbit male) was 21.1. The “Cmax Ratio to Phase I” value ([1]; rabbit male) was 29.9, the “AUC∞ Ratio to Phase II” value ([1]; rabbit male) was 45.6 and the “Cmax Ratio to Phase II” value ([1]; rabbit male) was 76.0. The NOAEL at 14 days ([1]; rabbit, in vivo, iv, 14-day multiple dose i.v.) was 25 mg/kg/day, the “AUC∞/Dose” value [2, 5] was 72,469 ± 8,774 ng × min/ml and the “AUC∞/Dose” value [2, 6] was 59,374 ± 4,742 ng × min/ml. The “AUC∞/Dose” value [2, 7] was 48,162 ± 3,355 ng × min/ml, the Plasma concentrations ([2]; after a 48 mg dose (0.62 mg/kg)) was “approximately 1.8 μg/ml” and the Plasma concentrations ([2]; at 100 mg (1.29 mg/kg)) was ~2900 ng/mL. The Plasma concentrations ([2]; at 200 mg (2.59 mg/kg)) was ~4600 ng/mL, the half-life ([2]; 48 mg, 48 mg single i.v. infusion, healthy volunteers, mean ± SE, read-out: t1/2 (converted)) was 6.3 ± 0.7 h and the half-life ([2]; 100 mg, 100 mg single i.v. infusion, healthy volunteers, mean ± SE, read-out: t1/2 (converted)) was 6.1 ± 0.7 h. The half-life ([2]; 200 mg, 200 mg single i.v. infusion, healthy volunteers, mean ± SE, read-out: t1/2 (converted)) was 8.2 ± 0.7 h, the half-life ([2]; single i.v. infusion 48, 100, 200 mg, read-out: distributional phase half-life) was 0.0333 to 0.05 h and the half-life ([2]; single i.v. infusion 48, 100, 200 mg, read-out: intermediate phase elimination half-life) was 1 to 2 h. For the same molecule, the half-life ([2]; single i.v. infusion 48, 100, 200 mg, read-out: terminal elimination phase half-life) was 8.5 to 9.5 h, the MRT [2, 5] was 3.1 ± 0.2 h and the clearance [2, 5] was 14.9 ± 1.9 mL/min/kg. The AUC [2, 5] was 710 ng·h/mL, the AUC(0-inf) [2, 5] was 725 ng·h/mL and the Cmax [2, 5] was 1860 ng/mL. It also gave a Vd [2, 5] of 2.8 ± 0.4 L/kg, an MRT [2, 6] of 3.1 ± 0.3 h and a clearance [2, 6] of 17.8 ± 1.5 mL/min/kg. The AUC [2, 6] was 1200 ng·h/mL, the AUC(0-inf) [2, 6] was 1220 ng·h/mL and the Cmax [2, 6] was 2890 ng/mL. For the same molecule, the Vd [2, 6] was 3.4 ± 0.4 L/kg, the MRT [2, 7] was 4 ± 0.6 h and the clearance [2, 7] was 21.3 ± 1.6 mL/min/kg. For the same molecule, the AUC [2, 7] was 2240 ng·h/mL, the AUC(0-inf) [2, 7] was 2320 ng·h/mL and the Cmax [2, 7] was 4570 ng/mL. For the same molecule, the Vd [2, 7] was 5 ± 0.7 L/kg, the “acute doses found safe” value ([2]; single i.v.) was ≤ 200 mg per subject and the “tolerability of drug administration” value ([2]; single i.v. 4 to 200 mg/volunteer) was “well tolerated”. The cardiovascular effects [3] was “devoid of cardiovascular effects”.
